target: Human immunodeficiency virus type 1 reverse transcriptase (Human immunodeficiency virus 1, UniProt Q72547); assay: Binding affinity to Human immunodeficiency virus 1 reverse transcriptase

pEC50 | SMILES
7.82 | CCC(=CCN1Cc2cc(Cl)cc3nc(S)n(c23)CC1C)CC (centres undefined)
5.66 | CC1Cn2c(S)nc3cc(Cl)cc(c32)CN1CCC1CC1 (centres undefined)
5.33 | C=C(C)CN1Cc2cc(Cl)cc3[nH]c(=O)n(c23)CC1C (centres undefined)
6.1 | CC(C)=CCN1Cc2cc(C)cc3[nH]c(=S)n(c23)CC1C (centres undefined)
6.35 | C=C(C)CN1Cc2cc(Cl)cc3[nH]c(=S)n(c23)CC1C (centres undefined)
8.29 | CCC(=CCN1Cc2c(Cl)ccc3[nH]c(=S)n(c23)CC1C)CC (centres undefined)
7.6 | CC(C)=CCN1Cc2cc(Cl)c(Cl)c3nc(S)n(c23)C[C@@H]1C
7.37 | CC1Cn2c(S)nc3cc(Cl)cc(c32)CN1CC1CCC1 (centres undefined)
4.23 | C=CCN1Cc2cccc3[nH]c(=O)n(c23)CC1C (centres undefined)
8.52 | CC(C)=CCN1Cc2c(Br)ccc3nc(S)n(c23)C[C@@H]1C
6.51 | CCC(=CCN1Cc2cc(C)cc3nc(O)n(c23)C[C@@H]1C)CC
7.85 | CC(C)=CCN1Cc2c(C)ccc3nc(S)n(c23)C[C@@H]1C
4.85 | C=C(C)CN1Cc2cccc3[nH]c(=O)n(c23)CC1C (centres undefined)
7.36 | CC(C)=CCN1Cc2cccc3[nH]c(=S)n(c23)CC1C (centres undefined)
5.38 | CC(C)=CCN1Cc2cccc3nc(O)n(c23)CC1C (centres undefined)
6.62 | CCCN1Cc2cccc3[nH]c(=S)n(c23)CC1C (centres undefined)
7.6 | CC(C)=CCN1Cc2cc(Cl)cc3nc(O)n(c23)CC1C (centres undefined)
7.04 | CC(C)=CCN1Cc2cc(Cl)cc3nc(S)n(c23)CC1C (centres undefined) [TIBO]

SMILES | pEC50
CC(C)=CCN1Cc2c(Cl)ccc3[nH]c(=S)n(c23)C[C@@H]1C [TIVIRAPINE] | 8.34

— ChEMBL document CHEMBL3045190, “Atomic and molecular parameters-based comparative QSAR study on tetrahydroimidazodiazepinone derivatives” (Med Chem Res, 2012)
